What was measured:
Type in all cases: cell-based
ALK = target: T1, ALK (Homo sapiens, UniProt Q9UM73); assay: Western blot degradation of ALK; details: H2228 Cell; 24 hours
T1 construct: known EML4-ALK variant 3 fusion, ALK kinase part unmutated), Western blot
Method: (§1) Conventional Western blot assay was performed to evaluate the effects of the compounds of the present disclosure on the expression of target proteins in cells.
(§2) (1) Cell Seeding and Protein Harvesting: The selected cells were processed according to the cell seeding procedure and protein harvesting procedure in Table II-2.
(§3) (2) To the collected supernatant, 5×SDS sample loading buffer was added, followed by denaturation at 95 °C for 5 minutes. The denatured samples were then separated by SDS-PAGE electrophoresis on a polyacrylamide gel. Proteins were transferred to a nitrocellulose membrane (0.45 μm NC membrane), blocked with blocking buffer at room temperature for 1 hour, and subjected to antibody incubation and development procedures according to the antibody manufacturer's instructions (Cell Signaling Technology).
(§4) Half-Maximal Degradation Concentration value (the drug concentration required for degrading proteins by 50%, abbreviated as DC50) reads method: comparing the grayscale values of Western blot bands from drug-treated samples with those from blank DMSO-treated controls, and identifying the drug concentration range at which the grayscale value is half that of the DMSO-treated control bands.
(§5) DC50 values can be calculated using ImageJ software to measure grayscale values of Western blot bands from drug-treated samples. The concentration-response curve is fitted to estimate the drug concentration corresponding to half the grayscale value.
(§6) Target protein remaining (%) refers to the percentage of target protein remaining in cells after treatment with protein degrader compounds.
(§7) Calculation method for target protein remaining (%): Use ImageJ software to measure grayscale values of Western blot bands from drug (protein degrader)-treated samples. The grayscale value of drug-treated bands is divided by that of internal control protein bands, and the resulting quotient is normalized to obtain the relative percentage of remaining target protein after protein degrader treatment.
(§8) Target protein degradation rate (%)=1−target protein remaining (%).

[1] = system: Human large cell immunoblastic lymphoma cell line SR; assay: Inhibition of SR cell proliferation (CellTiter luminescent viability); details: Table IB1, ALK inhibitor-based, 96 hours, read-out: Inhibitory activity (IC50, nM) on tumor cell proliferation, SR
Procedure, shortened: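 Cells are seeded in 96-well plates, cultured at 37 °C, 5% CO2, and treated next day with 5-fold serial compound dilutions (stock series from 2000 μM; 0.5 μL into 100 μL medium). Viability is read by CellTiter-Meiluncell luminescence after the set exposure, and IC50 is taken from growth-inhibition curves.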

[2] = system: Human T lymphocytic leukemia cell line (Jurkat); assay: Inhibition of Jurkat cell proliferation (CellTiter luminescent viability); details: Homo sapiens, Table IF3, AR inhibitor-based, 96 hours
[3] = system: Human acute lymphocytic leukemia T lymphocytes cell line (CCRF-CEM); assay: Inhibition of CCRF-CEM cell proliferation (CellTiter luminescent viability); details: Homo sapiens, 96 h, Table IF2, AR inhibitor-based
[4] = system: Human diffuse large B-cell lymphoma cell line (TMD8); assay: Inhibition of TMD8 cell proliferation (CellTiter luminescent viability); details: Homo sapiens, TMD8, 96 h, Table IF1, AR inhibitor-based
AR = target: T2, AR (Homo sapiens, UniProt P10275); assay: Western blot degradation of AR; details: LnCap Cell; 24 hours
T2 construct: expression of target proteins in cells; endogenous in cells
T2 sequence (P10275 1-920): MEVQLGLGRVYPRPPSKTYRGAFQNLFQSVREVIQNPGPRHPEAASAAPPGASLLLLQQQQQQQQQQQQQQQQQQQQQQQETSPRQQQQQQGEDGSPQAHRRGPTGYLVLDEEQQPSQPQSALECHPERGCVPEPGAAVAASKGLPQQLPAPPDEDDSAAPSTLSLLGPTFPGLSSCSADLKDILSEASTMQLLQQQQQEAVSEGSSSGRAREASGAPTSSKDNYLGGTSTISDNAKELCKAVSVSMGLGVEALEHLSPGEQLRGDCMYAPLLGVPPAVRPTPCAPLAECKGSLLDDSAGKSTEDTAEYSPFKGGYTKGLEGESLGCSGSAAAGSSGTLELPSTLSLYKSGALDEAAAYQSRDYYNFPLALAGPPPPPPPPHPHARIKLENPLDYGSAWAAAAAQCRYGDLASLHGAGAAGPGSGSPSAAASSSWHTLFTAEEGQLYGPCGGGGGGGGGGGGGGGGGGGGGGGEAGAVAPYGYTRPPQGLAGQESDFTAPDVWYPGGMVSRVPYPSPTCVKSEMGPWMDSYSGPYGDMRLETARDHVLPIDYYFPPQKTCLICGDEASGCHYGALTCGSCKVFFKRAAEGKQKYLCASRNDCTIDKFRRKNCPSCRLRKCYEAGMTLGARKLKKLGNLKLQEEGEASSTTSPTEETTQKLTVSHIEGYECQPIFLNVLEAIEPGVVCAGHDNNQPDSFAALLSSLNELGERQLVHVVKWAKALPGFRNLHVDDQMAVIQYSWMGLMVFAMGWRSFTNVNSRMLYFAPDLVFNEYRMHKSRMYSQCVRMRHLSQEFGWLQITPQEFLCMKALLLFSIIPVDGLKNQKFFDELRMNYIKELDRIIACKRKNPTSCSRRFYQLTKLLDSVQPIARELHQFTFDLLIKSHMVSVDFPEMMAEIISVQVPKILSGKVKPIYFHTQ
Method: as §1, §2, §3, §4, §5, §6, §7, §8

[5] = 10 nM, read-out: Inhibition Rate at 10 nM (%)
[6] = 500 nM, read-out: Inhibition Rate at 500 nM (%)

T1 sequence (Q9UM73 19-1620): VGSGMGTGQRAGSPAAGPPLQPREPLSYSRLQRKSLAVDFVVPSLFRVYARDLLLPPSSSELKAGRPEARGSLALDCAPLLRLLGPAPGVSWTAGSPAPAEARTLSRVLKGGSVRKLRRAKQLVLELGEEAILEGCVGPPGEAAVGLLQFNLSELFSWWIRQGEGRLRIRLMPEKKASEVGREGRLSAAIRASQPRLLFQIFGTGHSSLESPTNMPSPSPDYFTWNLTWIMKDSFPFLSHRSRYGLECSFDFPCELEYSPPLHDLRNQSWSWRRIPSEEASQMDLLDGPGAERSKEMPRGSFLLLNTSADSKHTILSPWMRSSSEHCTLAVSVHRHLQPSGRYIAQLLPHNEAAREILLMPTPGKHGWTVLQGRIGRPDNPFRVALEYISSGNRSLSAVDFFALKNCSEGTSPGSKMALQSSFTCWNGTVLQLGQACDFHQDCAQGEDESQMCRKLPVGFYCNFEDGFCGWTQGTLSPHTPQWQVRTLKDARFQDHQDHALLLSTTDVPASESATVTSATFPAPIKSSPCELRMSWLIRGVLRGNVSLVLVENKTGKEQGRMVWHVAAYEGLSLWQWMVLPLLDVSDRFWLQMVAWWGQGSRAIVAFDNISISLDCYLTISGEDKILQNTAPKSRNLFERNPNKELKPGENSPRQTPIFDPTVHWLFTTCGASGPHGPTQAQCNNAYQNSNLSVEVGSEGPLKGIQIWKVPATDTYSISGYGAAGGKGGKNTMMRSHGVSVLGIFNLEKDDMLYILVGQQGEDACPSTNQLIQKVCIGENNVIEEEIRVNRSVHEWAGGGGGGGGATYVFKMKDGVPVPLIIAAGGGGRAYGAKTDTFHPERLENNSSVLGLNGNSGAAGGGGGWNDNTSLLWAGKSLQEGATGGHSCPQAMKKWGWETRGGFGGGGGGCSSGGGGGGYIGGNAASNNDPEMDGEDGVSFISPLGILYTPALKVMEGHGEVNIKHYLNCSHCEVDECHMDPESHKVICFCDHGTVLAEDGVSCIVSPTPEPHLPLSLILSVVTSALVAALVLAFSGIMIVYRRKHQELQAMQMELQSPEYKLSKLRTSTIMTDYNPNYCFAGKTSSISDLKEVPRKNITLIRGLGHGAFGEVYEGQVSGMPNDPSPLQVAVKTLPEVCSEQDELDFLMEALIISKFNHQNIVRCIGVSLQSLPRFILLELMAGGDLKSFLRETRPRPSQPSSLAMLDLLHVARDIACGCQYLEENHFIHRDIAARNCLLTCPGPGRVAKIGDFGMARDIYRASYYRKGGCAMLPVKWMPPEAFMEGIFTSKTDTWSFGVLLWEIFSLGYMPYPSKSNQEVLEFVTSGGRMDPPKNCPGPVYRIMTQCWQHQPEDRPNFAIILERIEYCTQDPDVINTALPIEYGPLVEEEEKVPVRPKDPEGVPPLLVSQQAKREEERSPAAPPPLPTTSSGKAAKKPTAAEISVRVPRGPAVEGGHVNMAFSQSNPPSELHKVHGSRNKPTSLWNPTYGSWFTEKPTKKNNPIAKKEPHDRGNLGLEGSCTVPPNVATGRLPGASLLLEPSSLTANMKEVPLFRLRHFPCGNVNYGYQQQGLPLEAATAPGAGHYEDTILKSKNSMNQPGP
T1 sequence (Q96SW2 whole entry partner, the tested form may be a part): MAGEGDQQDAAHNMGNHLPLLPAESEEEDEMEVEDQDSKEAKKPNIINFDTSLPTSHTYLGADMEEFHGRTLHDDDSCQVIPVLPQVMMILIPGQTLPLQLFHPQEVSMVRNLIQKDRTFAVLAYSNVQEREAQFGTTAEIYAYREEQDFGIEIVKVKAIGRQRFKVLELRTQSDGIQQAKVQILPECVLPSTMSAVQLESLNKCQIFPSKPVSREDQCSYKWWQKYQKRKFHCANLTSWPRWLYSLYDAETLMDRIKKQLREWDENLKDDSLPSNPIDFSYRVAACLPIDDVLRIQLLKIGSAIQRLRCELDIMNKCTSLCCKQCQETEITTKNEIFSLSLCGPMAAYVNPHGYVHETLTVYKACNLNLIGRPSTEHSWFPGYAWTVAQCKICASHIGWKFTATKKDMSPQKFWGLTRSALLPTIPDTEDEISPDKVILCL

Degradation of substrate protein ALK (substrate protein remaining %) (ALK) | IC50 [1] [nM] | SMILES | other results
A (0%≤substrate protein remaining %≤80%) | 10 to 50 | Cc1cc(Nc2ncc(Cl)c(Nc3ccccc3S(=O)(=O)C(C)C)n2)c(OC(C)C)cc1C1CCN(Cc2ccc3c(c2)CN(N2CCC(=O)NC2=O)C3=O)CC1 [GT-07362, 1-(5-((4-(4-((5-chloro-4-((2-(isopropylsulfonyl)phenyl)amino)pyrimidin-2-yl)amino)-5-isopropoxy-2-methylphenyl)piperidin-1-yl)methyl)-1-oxoisoindolin-2-yl)dihydropyrimidine-2,4 (1H,3H)-dione] | 
A (0%≤substrate protein remaining %≤80%) | 100 to 300 | CCc1cc2c(cc1N1CCN(Cc3ccc4c(c3)C(=O)N(N3CCC(=O)NC3=O)C4=O)CC1)C(C)(C)c1[nH]c3cc(C#N)ccc3c1C2=O [GT-07320, 8-(4-((2-(2,4-dioxotetrahydropyrimidin-1(2H)-yl)-1,3-dioxoisoindolin-5-yl)methyl)piperazin-1-yl)-9-ethyl-6,6-dimethyl-11-oxo-6,11-dihydro-5H-benzo[b]carbazole-3-carbonitrile] | 
A (0%≤substrate protein remaining %≤80%) | 50 to 100 | COc1cc(N2CCN(CC3CCN(c4ccc5c(c4)C(=O)N(N4CCC(=O)NC4=O)C5=O)CC3)CC2)ccc1Nc1ncc(Cl)c(Nc2ccccc2P(C)(C)=O)n1 [GT-07343, 5-(4-((4-(4-((5-chloro-4-((2-(dimethylphosphoryl)phenyl)amino)pyrimidin-2-yl)amino)-3-methoxyphenyl)piperazin-1-yl)methyl)piperidin-1-yl)-2-(2,4-dioxotetrahydropyrimidin-1(2H)-yl)isoindoline-1,3-dione] | 
A (0%≤substrate protein remaining %≤80%) | 100 to 300 | Cc1cc(Nc2ncc(Cl)c(Nc3ccccc3S(=O)(=O)C(C)C)n2)c(OC(C)C)cc1C1CCN(Cc2ccc3c(c2)C(=O)N(N2CCC(=O)NC2=O)C3=O)CC1 [GT-07363, 5-((4-(4-((5-chloro-4-((2-(isopropylsulfonyl)phenyl)amino)pyrimidin-2-yl)amino)-5-isopropoxy-2-methylphenyl)piperidin-1-yl)methyl)-2-(2,4-dioxotetrahydropyrimidin-1(2H)-yl)isoindoline-1,3-dione] | 
A (0%≤substrate protein remaining %≤80%) | 10 to 50 | COc1cc(N2CCN(Cc3ccc4c(c3)CN(N3CCC(=O)NC3=O)C4=O)CC2)ccc1Nc1ncc(Cl)c(Nc2ccccc2P(C)(C)=O)n1 [GT-07341, 1-(5-((4-(4-((5-chloro-4-((2-(dimethylphosphoryl)phenyl)amino)pyrimidin-2-yl)amino)-3-methoxyphenyl)piperazin-1-yl)methyl)-1-oxoisoindolin-2-yl)dihydropyrimidine-2,4 (1H,3H)-dione] | 
A (0%≤substrate protein remaining %≤80%) | 10 to 50 | CCc1cc2c(cc1N1CCC(N3CCN(CC4CCN(c5cccc6c5C(=O)N(N5CCC(=O)NC5=O)C6=O)CC4)CC3)CC1)C(C)(C)c1[nH]c3cc(C#N)ccc3c1C2=O [GT-07298, 8-(4-(4-((1-(2-(2,4-dioxotetrahydropyrimidin-1(2H)-yl)-1,3-dioxoisoindolin-4-yl)piperidin-4-yl)methyl)piperazin-1-yl)piperidin-1-yl)-9-ethyl-6,6-dimethyl-11-oxo-6,11-dihydro-5H-benzo[b]carbazole-3-carbonitrile] | 
A (0%≤substrate protein remaining %≤80%) |  | COc1cc(N2CCC(CN3CC4CCC(C3)N4c3ccc4c(c3)C(=O)N(N3CCC(=O)NC3=O)C4=O)CC2)ccc1Nc1ncc(Cl)c(Nc2ccccc2P(C)(C)=O)n1 [GT-08530, 5-(3-((1-(4-((5-chloro-4-((2-(dimethylphosphoryl)phenyl)amino)pyrimidin-2-yl)amino)-3-methoxyphenyl)piperidin-4-yl)methyl)-3,8-diazabicyclo[3.2.1]octan-8-yl)-2-(2,4-dioxotetrahydropyrimidin-1(2H)-yl)isoindoline-1,3-dione] | 
A (0%≤substrate protein remaining %≤80%) |  | COc1cc(N2CCC(N(C)Cc3ccc4c(c3)C(=O)N(N3CCC(=O)NC3=O)C4=O)CC2)ccc1Nc1ncc(Cl)c(Nc2ccccc2P(C)(C)=O)n1 [GT-04660, 5-(((1-(4-((5-chloro-4-((2-(dimethylphosphoryl)phenyl)amino)pyrimidin-2-yl)amino)-3-methoxyphenyl)piperidin-4-yl)(methyl)amino)methyl)-2-(2,4-dioxotetrahydropyrimidin-1(2H)-yl)isoindoline-1,3-dione] | 
A (0%≤substrate protein remaining %≤80%) |  | CCc1cc2c(cc1N1CCC(N3CCN(Cc4ccc5c(c4)C(=O)N(N4CCC(=O)NC4=O)C5=O)CC3)CC1)C(C)(C)c1[nH]c3cc(C#N)ccc3c1C2=O [GT-04661, 8-(4-(4-((2-(2,4-dioxotetrahydropyrimidin-1(2H)-yl)-1,3-dioxoisoindolin-5-yl)methyl)piperazin-1-yl)piperidin-1-yl)-9-ethyl-6,6-dimethyl-11-oxo-6,11-dihydro-5H-benzo[b]carbazole-3-carbonitrile] | 
 |  | CC1(C)[C@H](NC(=O)c2ccc(N3CCC(CN4CCN(c5cc(F)c6c(c5)C(=O)N(N5CCC(=O)NC5=O)C6=O)CC4)CC3)nc2)C(C)(C)[C@H]1Oc1ccc(C#N)c(Cl)c1 [GT-05346, N-((1r,3r)-3-(3-chloro-4-cyanophenoxy)-2,2,4,4-tetramethylcyclobutyl)-6-(4-((4-(2-(2,4-dioxotetrahydropyrimidin-1(2H)-yl)-7-fluoro-1,3-dioxoisoindolin-5-yl)piperazin-1-yl)methyl)piperidin-1-yl)nicotinamide] | inhibition at 0.01 µM [2, 5]: 0 to 5%; inhibition at 0.5 µM [2, 6]: 20 to 30%; inhibition at 0.01 µM [3, 5]: 15 to 20%; inhibition at 0.5 µM [3, 6]: 20 to 30%; inhibition at 0.01 µM ([4]; TMD8, 10 nM, read-out: Inhibition Rate at 10 nM (%)): 15 to 20%; inhibition at 0.5 µM ([4]; TMD8, 500 nM, read-out: Inhibition Rate at 500 nM (%)): 35 to 40%; Degradation of substrate protein AR (substrate protein remaining %) (AR): A (0%≤substrate protein remaining %≤80%)
